The record followed here is patent US9309239B2, “Substituted 6-fluoro-1H-pyrazolo[4,3-b]pyridines and use thereof” (BAYER INTELLECTUAL PROPERTY GMBH, priority 2010, dated 2016).

A short description of data set [1]: Pharmacokinetic parameters following intravenous administration in rats. The format is in vivo, male Wistar rats. As to conditions: intravenous administration of 0.3 mg/kg. The method, then:
B-4. Determination of Pharmacokinetic Parameters Following Intravenous and Oral Administration:
The pharmacokinetic parameters of the substance are determined in male CD-1 mice, male Wistar rats and female beagles. The administration volume is 1 ml/kg for mice, 5 ml/kg for rats and 0.5 ml/kg for dogs. Intravenous administration is via a formulation of species-specific plasma/DMSO (99/1) in the case of mice and rats and via water/PEG400/ethanol (50/40/10) in the case of dogs. The taking of blood from rats is simplified by inserting a silicone catheter into the right Vena jugularis externa prior to substance administration. The surgical intervention takes place one day prior to the experiment with isofluran anesthesia and administration of an analgetic (carprofen 5 mg/kg s.c.). Substance administration is as i.v. bolus in the case of mice and via a 15-minute infusion in the case of rats and dogs. Removal of blood is after 0, 0.033, 0.083, 0.17, 0.5, 1, 2, 3, 4, 6, 7 and 24 hours in the case of mice and after 0, 0.083, 0.25, 0.28, 0.33, 0.42, 0.75, 1, 2, 3, 4, 6, 7 and 24 hours in the case of dogs and rats. […]
An internal standard (ZK 228859) is added to the unknown samples, calibration samples and QCs, and the protein is precipitated using excess acetonitrile. […] The substances are quantified by peak heights or areas using extracted ion chromatograms of specific MRM experiments.
The plasma concentration/time plots determined are used to calculate the pharmacokinetic parameters such as AUC, Cmax, t1/2 (half life) and CL (clearance) employing the validated pharmacokinetic calculation program KinEx (Vers. 2.5 and 3).
Since the substance quantification is performed in plasma, it is necessary to determine the blood/plasma distribution of the substance in order to be able to adjust the pharmacokinetic parameters correspondingly. […] After centrifugation at 1000 g, the plasma concentration is measured (see above) and determined by calculating the quotient of the cb/cp values.
Following intravenous administration of 0.3 mg/kg of example 1 in rats, the following values were recorded: […]

Another data set has as its system rabbit aorta rings. Briefly: Vasorelaxant action in vitro (phenylephrine-contracted rabbit aorta rings). As to conditions: Oryctolagus cuniculus; concentration reducing phenylephrine-induced contraction of rabbit aorta rings by 50%. The method, then: B-1. Vasorelaxant Action In Vitro
Rabbits are stunned by a blow to the neck and exsanguinated. The aorta is removed, freed from adhering tissue and divided into rings of a width of 1.5 mm. The rings are placed individually under an initial tension in 5 ml organ baths with Krebs-Henseleit solution which is at 37° C., is gassed with carbogen and has the following composition (in each case mM): sodium chloride 119; potassium chloride: 4.8; calcium chloride dihydrate: 1; magnesium sulfate heptahydrate: 1.4; potassium dihydrogenphosphate: 1.2; sodium bicarbonate: 25; glucose: 10. The contractile force is determined with Statham UC2 cells, amplified and digitalized using A/D transducers (DAS 1802 HC, Keithley Instruments Munich), and recorded in parallel on linear recorders. To obtain a contraction, phenylephrine is added to the bath cumulatively in increasing concentration. After several control cycles, the substance to be investigated is added in each further run in increasing dosage in each case, and the height of the contraction achieved is compared with the height of the contraction reached in the last preceding run. This is used to calculate the concentration needed to reduce the magnitude of the control value by 50% (IC50 value). The standard administration volume is 5 μl; the DMSO content in the bath solution corresponds to 0.1%.

Data set [2] has as its system recombinant guanylate cyclase reporter cell line. Briefly: Effect on a recombinant guanylate cyclase reporter cell line. It counts as cell-based. As to conditions: MEC=minimum effective concentration. Here is the method:
B-2. Effect on a Recombinant Guanylate Cyclase Reporter Cell Line
The cellular activity of the compounds according to the invention is determined using a recombinant guanylate cyclase reporter cell line, as described in F. Wunder et al., Anal. Biochem. 339, 104-112 (2005).

Molecules are shown by their SMILES.

In data set [1], `COC(=O)Nc1c(N)nc(-n2nc(Cc3ccccc3F)c3ncc(F)cc32)nc1N` [Example 1, Methyl {4,6-diamino-2-[6-fluoro-3-(2-fluorobenzyl)-1H-pyrazolo[4,3-b]pyridin-1-yl]pyrimidin-5-yl}carbamate] showed an AUCnorm of 4.62 kg·h/L. In addition, in data set [1] (male, Wistar, rat, blood, read-out: CL blood (converted)), the clearance was 5.5 mL/min/kg. The half-life (as a rule, the time in which the quantity being followed falls by half) in data set [1] (male, Wistar, rat, plasma) is 1.38 h. The IC50 (in general, the concentration at which inhibition is half-maximal) with rabbit aorta rings amounted to 1380 nM. Besides, the MEC in data set [2] is 0.3 µM.

For the compound `CCOC(=O)Nc1c(N)nc(-n2nc(Cc3ccccc3F)c3ncc(F)cc32)nc1N` [Example 2, Ethyl {4,6-diamino-2-[6-fluoro-3-(2-fluorobenzyl)-1H-pyrazolo[4,3-b]pyridin-1-yl]pyrimidin-5-yl}carbamate], the IC50 in the data set on rabbit aorta rings was 763 nM. The MEC in data set [2] worked out at 0.3 µM.

`COC(=O)N(C)c1c(N)nc(-n2nc(Cc3ccccc3F)c3ncc(F)cc32)nc1N` [Example 7, Methyl {4,6-diamino-2-[6-fluoro-3-(2-fluorobenzyl)-1H-pyrazolo[4,3-b]pyridin-1-yl]pyrimidin-5-yl}methylcarbamate]: the half-inhibitory concentration (IC50) with rabbit aorta rings was 194 nM. In data set [2], the MEC came out at 0.1 µM.

With `CCOC(=O)N(C)c1c(N)nc(-n2nc(Cc3ccccc3F)c3ncc(F)cc32)nc1N` [Example 8, Ethyl {4,6-diamino-2-[6-fluoro-3-(2-fluorobenzyl)-1H-pyrazolo[4,3-b]pyridin-1-yl]pyrimidin-5-yl}methylcarbamate], inhibition in the data set on rabbit aorta rings was half-maximal at 286 nM (IC50). Besides, the MEC in data set [2] was found to be 0.1 µM.

Consider `COC(=O)N(CC(F)(F)F)c1c(N)nc(-n2nc(Cc3ccccc3F)c3ncc(F)cc32)nc1N` [Example 13, Methyl {4,6-diamino-2-[6-fluoro-3-(2-fluorobenzyl)-1H-pyrazolo[4,3-b]pyridin-1-yl]pyrimidin-5-yl}(2,2,2-trifluoroethyl)carbamate], for which half-maximal inhibition with rabbit aorta rings (IC50) required 178 nM. Further, in data set [2], the MEC amounted to 0.1 µM.
